Test results published in BindingDB's records for doi:10.1016/j.bmcl.2004.12.007 (Cerep, 2005).
pIC50: −log10 of the molar value.

Target: Integrin alpha-L/beta-2 (Homo sapiens, UniProt P05107+P20701)
Experiment: Inhibitory concentration against leukocyte function-associated antigen-1 in HSB-2 human lymphoblast and H1HeLa cell adhesion assay

Chain of Integrin alpha-L/beta-2 (P20701 whole entry): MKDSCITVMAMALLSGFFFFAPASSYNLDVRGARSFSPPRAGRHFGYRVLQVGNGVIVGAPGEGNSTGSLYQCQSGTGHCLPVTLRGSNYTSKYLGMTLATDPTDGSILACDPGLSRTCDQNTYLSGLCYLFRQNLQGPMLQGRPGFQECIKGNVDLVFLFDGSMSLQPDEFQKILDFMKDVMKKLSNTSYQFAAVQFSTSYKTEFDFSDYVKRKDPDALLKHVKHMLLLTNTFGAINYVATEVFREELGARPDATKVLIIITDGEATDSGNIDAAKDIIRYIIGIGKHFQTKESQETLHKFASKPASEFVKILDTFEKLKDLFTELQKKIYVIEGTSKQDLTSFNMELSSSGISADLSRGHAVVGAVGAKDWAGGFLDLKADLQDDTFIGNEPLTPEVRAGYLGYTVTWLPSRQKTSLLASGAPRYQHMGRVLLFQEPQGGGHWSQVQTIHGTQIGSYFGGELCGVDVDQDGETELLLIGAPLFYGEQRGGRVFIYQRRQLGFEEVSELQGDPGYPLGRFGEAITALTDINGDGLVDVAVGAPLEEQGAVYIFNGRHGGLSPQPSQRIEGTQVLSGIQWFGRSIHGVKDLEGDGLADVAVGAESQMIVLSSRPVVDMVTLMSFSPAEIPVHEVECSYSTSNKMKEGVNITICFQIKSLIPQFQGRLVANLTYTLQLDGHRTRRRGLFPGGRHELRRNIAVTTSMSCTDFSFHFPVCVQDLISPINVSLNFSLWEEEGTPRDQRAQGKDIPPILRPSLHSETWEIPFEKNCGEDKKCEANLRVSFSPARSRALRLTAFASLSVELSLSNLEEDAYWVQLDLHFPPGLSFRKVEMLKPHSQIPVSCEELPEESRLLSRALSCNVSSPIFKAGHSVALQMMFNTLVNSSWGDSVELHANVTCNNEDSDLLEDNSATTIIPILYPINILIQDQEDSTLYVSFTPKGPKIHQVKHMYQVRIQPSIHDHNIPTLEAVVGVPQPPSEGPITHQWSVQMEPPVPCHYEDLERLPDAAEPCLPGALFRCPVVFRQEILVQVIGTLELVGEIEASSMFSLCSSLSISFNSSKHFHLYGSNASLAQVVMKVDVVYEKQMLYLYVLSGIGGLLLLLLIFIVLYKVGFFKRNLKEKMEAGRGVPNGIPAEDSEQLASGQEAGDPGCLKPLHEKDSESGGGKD
Chain of Integrin alpha-L/beta-2 (P05107 whole entry H354Q): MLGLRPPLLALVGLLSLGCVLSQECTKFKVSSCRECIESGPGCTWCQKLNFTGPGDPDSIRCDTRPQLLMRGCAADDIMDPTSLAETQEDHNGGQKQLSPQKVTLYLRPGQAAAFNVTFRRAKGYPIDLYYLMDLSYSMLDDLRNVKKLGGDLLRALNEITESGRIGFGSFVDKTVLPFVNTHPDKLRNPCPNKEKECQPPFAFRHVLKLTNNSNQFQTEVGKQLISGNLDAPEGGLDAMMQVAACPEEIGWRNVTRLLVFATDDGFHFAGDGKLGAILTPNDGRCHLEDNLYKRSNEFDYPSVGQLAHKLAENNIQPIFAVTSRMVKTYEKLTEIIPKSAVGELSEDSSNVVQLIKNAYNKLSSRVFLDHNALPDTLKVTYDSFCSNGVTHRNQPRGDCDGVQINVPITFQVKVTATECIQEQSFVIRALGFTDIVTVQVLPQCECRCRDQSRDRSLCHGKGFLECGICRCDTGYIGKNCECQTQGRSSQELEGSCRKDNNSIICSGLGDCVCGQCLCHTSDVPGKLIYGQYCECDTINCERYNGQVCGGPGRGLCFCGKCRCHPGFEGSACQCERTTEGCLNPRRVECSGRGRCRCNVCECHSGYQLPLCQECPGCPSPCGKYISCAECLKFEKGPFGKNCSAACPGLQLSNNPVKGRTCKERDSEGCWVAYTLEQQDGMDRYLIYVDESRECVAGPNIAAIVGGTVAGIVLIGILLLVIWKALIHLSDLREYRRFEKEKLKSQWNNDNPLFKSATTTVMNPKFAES

SMILES: N#Cc1ccc(-c2cccc(CN[C@H]3Cc4c(O)n(-c5cc(Cl)cc(Cl)c5)c(=O)n4C3)c2)cc1 [3''-{[(6S,7aS)-2-(3,5-Dichloro-phenyl)-1,3-dioxo-hexahydro-pyrrolo[1,2-c]imidazol-6-ylamino]-methyl}-biphenyl-4-carbonitrile]
- pIC50: 6.76

SMILES: CN(Cc1cccc(-c2ccc(Br)cc2)c1)[C@H]1Cc2c(O)n(-c3cc(Cl)cc(Cl)c3)c(=O)n2C1 [(6S,7aS)-6-[(4''-Bromo-biphenyl-3-ylmethyl)-methyl-amino]-2-(3,5-dichloro-phenyl)-tetrahydro-pyrrolo[1,2-c]imidazole-1,3-dione]
- pIC50: 6.76
